The values that follow come from patent publication US7435557B2 (priority 2002, dated 2008).

Assay [1] concerns GTP cyclohydrolase II. Description: GTP cyclohydrolase activity assay coupled to formate dehydrogenase (NADH formation, absorption at 340 nm). In kind it is biochemical, Ashbya gossypii. Particulars: cell free extract, 2.5 mM GTP, 0.5 mM NAD, 2 units/ml formate dehydrogenase; FIG. 1. The procedure:
Ashbya gossypii cells may be obtained after 2 days from a culture in 3% (w/v) malt extract +0.3% (w/v) difco-soyton, pH 5.6 at 28° C. A cell-free extract can be obtained by mechanical breakage of the cells with a kitchen blender in 50 mM imidazole buffer pH 7 containing 1 mM EDTA-Na salt, 5 mM MgSO4, 10 mM KCl, 5 mM dithiothreitol and 30% (v/v) glycerol and separation of unbroken cells and debris by centrifugation.
(§1) The assay is performed in a suitable buffer e.g. Tris/HCl, pH 7.8 including 1 mM Mg.Cl2, 1 mM DTT, 0.5 mM NAD, 2 units/ml formate dehydrogenase and 2.5 mM GTP Li salt. After the addition of the GTP cyclohydrolase comprising cell free extracts of step A), the reaction was monitored by measuring the absorption at 340 nm.
After dissolving the respective candidate compounds in a suitable solvent e.g. DMSO, an aliquot of the afore made solution is added to the reaction mixture. The enzyme activity of this sample is compared with the activity of a control comprising the pure solvent instead of the candidate compound. The resulting relative activity was calculated as percent inhibition in relation to the sample without the candidate compound.
In FIG. 1, the GTP dependant formation of NADH in the reaction mixture and inhibition by 3-Butyl-10-(3-chlorophenyl)-10H-pyrimido[4,5-b]quinoline-2,4-dione is shown.

Assay [2] relates to formate dehydrogenase. The experiment in a line: Specificity control: substrate GTP replaced with formic acid. The conditions noted are these: formate instead of GTP; FIG. 2. In kind it is biochemical. The method, then:
as §1
To distinguish between the inhibition of GTP cyclohydrolase and formate dehydrogenase in the above-mentioned assay, the subtrate GTP is replaced with formic acid.

Assay [3] deals with Phytophthora infestans. In kind it is cell-based. The conditions noted are these: 125 ppm compound solution, 50 μl + 50 μl spore suspension, 18° C., 7 days, 405 nm.
For assay [4], the system named is Septoria tritici. In kind it is cell-based. The conditions noted are these: 18° C., 7 days; 405 nm.
Assay [5] concerns Pyricularia oryzae. In kind it is cell-based. Particulars: 125 ppm compound solution, 50 μl + 50 μl spore suspension, 18° C., 7 days, 405 nm.

Each structure is given as a SMILES string.

`CCCCn1c(=O)nc2n(-c3cccc(Cl)c3)c3ccccc3cc-2c1=O` [3-butyl-10-(3-chlorophenyl)-10H-pyrimido[4,5-b]quinoline-2,4-dione]: in assay [1], the “inhibition of GTP dependent formation of NADH” value was “inhibition”. For the same compound, in assay [2], the “inhibition of formate dehydrogenase alone” value is “No inhibition”. The “% growth compared with the 0 ppm control” value worked out at 39.9% in assay [3], 0% in assay [4] and 47.6% in assay [5].
